Measured values: patent US20180202388A1, “PISTON FOR AN INTERNAL COMBUSTION ENGINE AND METHOD FOR PRODUCING THE PISTON FOR AN INTERNAL COMBUSTION ENGINE” (FEDERAL-MOGUL NURNBERG GMBH, priority 2015, published 2018)
Entries after “also recorded” stand apart in the source; their conditions may differ.

Columns and labels:
[1] = test system: human kinases (456 kinases); test: KINOMEscan in vitro kinase profiling (primary screen binding interactions, % Ctrl, S-score); settings: for interaction with the 456 kinases tested: screened at 1 μM; for S-score, type S1 / S-score, type S10 / Number of hits/number of kinases, S10 / Number of hits/number of kinases, S1 / Kinase targets, S10 / Kinase targets, S1: tested at 1 μM; for S-score, type S1: S(1)=(number of kinases with % Ctrl<1)/(number of kinases tested); for S-score, type S10: S(10)=(number of kinases with % Ctrl <10)/(number of kinases tested); for Number of hits/number of kinases, S10: hits with % Ctrl <10; for Number of hits/number of kinases, S1: hits with % Ctrl<1; for Kinase targets, S10: kinases with % Ctrl <10; for Kinase targets, S1: kinases with % Ctrl<1
Method: An in vitro kinase profiling was conducted in order to evidence the absence of protein kinase inhibition by the compounds of the invention.
DiscoveRx (Ambit Biosciences) has developed a high-throughput system (KINOMEscan™) for screening of compounds against large numbers of human kinases (456 kinases).
The compounds of the invention were screened at the concentration of 1 μM, and results for primary screen binding interactions were reported as percent control (% Ctrl), where lower numbers indicate stronger hits. DMSO is used as a negative control (100% Ctrl) while a high affinity compound is used as a positive control (0% Ctrl). % Ctrl is calculated as follow: […]
Selectivity Score or S-score is a quantitative measure of compound selectivity. It is calculated by dividing the number of kinases that compounds bind to by the total number of distinct kinases tested, excluding mutant variants. S(10)=(number of kinases with % Ctrl <10)/(number of kinases tested), S(1)=(number of kinases with % Ctrl<1)/(number of kinases tested).

HL60 = test: CellTiter-Blue cell-based survival/proliferation assay, HL60 (leukemia); settings: Homo sapiens, HL-60; HL60 cells, 48 h; read-out: Anti-tumoral activity (measured IC50), Leukemia HL60
Method: (§1) Compounds of formula (I) were tested against a panel of about 34 human tumor cell lines representing 17 cancer type, namely leukemia (represented by 1 cell line), lymphoma (4 cell lines), myeloma (1 cell line), colorectal (2 cell lines), head and neck (3 cell lines), lung (3 cell lines), melanoma (2 cell lines), pancreas (2 cell lines), prostate (2 cell lines), ovary (2 cell lines) breast (2 cell lines), kidney (2 cell lines), stomach (2 cell lines), liver (2 cell lines), glioblastoma (2 cell lines), osteosarcoma (1 cell line), Ewing Sarcoma (1 cell line).
(§2) CellTiter-Blue cell-based survival/proliferation assay (Promega G8080) was performed on tumor cell lines. A total of 1.10^4 cells/well/50 μl were seeded in a 96-wells plate. Treatment was initiated by addition of a 2× drug solution of 1/10 serial dilutions ranging from 0 to 10 μM. Cells were grown for 48 h at 37° C. and then incubated with 10 μl/well of Promega CellTiter-Bleue reagent for 4 h at 37° C. The amount of resorufin dye formed was quantified by its fluorescence emission at 590 nm using a scanning multiwell spectrophotometer (OPTIMA, BMG labtech, France). A blank well without cells was used as a background control for the spectrophotometer.

OPM2 = test: CellTiter-Blue cell-based survival/proliferation assay, OPM2 (myeloma); settings: Homo sapiens, OPM-2; OPM2 cells, 48 h; read-out: Anti-tumoral activity (measured IC50), Myeloma OPM2
Method: as §1, §2

A498 = test: CellTiter-Blue cell-based survival/proliferation assay, A498; settings: Homo sapiens, Kidney, 48 h
Method: as §1, §2

A549 = test: CellTiter-Blue cell-based survival/proliferation assay, A549; settings: Homo sapiens, Lung, 48 h
Method: as §1, §2

ACHN = test: CellTiter-Blue cell-based survival/proliferation assay, ACHN; settings: Homo sapiens, Kidney, 48 h
Method: as §1, §2

AGS = test: CellTiter-Blue cell-based survival/proliferation assay, AGS; settings: Homo sapiens, Stomach, 48 h
Method: as §1, §2

BT20 = test: CellTiter-Blue cell-based survival/proliferation assay, BT20; settings: Homo sapiens, BT-20, Breast, 48 h
Method: as §1, §2

BXPC3 = test: CellTiter-Blue cell-based survival/proliferation assay, BXPC3; settings: Homo sapiens, BXPC-3, Pancreas, 48 h
Method: as §1, §2

CALU6 = test: CellTiter-Blue cell-based survival/proliferation assay, CALU6; settings: Homo sapiens, Calu-6, Lung, 48 h
Method: as §1, §2

CLS354 = test: CellTiter-Blue cell-based survival/proliferation assay, CLS354; settings: Homo sapiens, CLS-354; Head & Neck; CLS354_4; 48 h
Method: as §1, §2

DLD1 = test: CellTiter-Blue cell-based survival/proliferation assay, DLD1; settings: Homo sapiens, DLD-1; Colorectal; DLD_1; 48 h
Method: as §1, §2

DU145 = test: CellTiter-Blue cell-based survival/proliferation assay, DU145; settings: Homo sapiens, DU-145, Prostate, 48 h
Method: as §1, §2

H1299 = test: CellTiter-Blue cell-based survival/proliferation assay, H1299; settings: Homo sapiens, NCI-H1299, Lung, 48 h
Method: as §1, §2

HCT116 = test: CellTiter-Blue cell-based survival/proliferation assay, HCT116; settings: Homo sapiens, HCT-116, Colorectal, 48 h
Method: as §1, §2

HEP2 = test: CellTiter-Blue cell-based survival/proliferation assay, HEP2; settings: Homo sapiens, HEp-2, Head & Neck, 48 h
Method: as §1, §2

HEPG2 = test: CellTiter-Blue cell-based survival/proliferation assay, HEPG2; settings: Homo sapiens, Liver, 48 h
Method: as §1, §2

HGC27 = test: CellTiter-Blue cell-based survival/proliferation assay, HGC27; settings: Homo sapiens, HGC-27, Stomach, 48 h
Method: as §1, §2

MDAMB231 = test: CellTiter-Blue cell-based survival/proliferation assay, MDAMB231; settings: Homo sapiens, MDA-MB-231, Breast, 48 h
Method: as §1, §2

MESSA = test: CellTiter-Blue cell-based survival/proliferation assay, MESSA; settings: Homo sapiens, MES-SA, Ovary, 48 h
Method: as §1, §2

PANC1 = test: CellTiter-Blue cell-based survival/proliferation assay, PANC1; settings: Homo sapiens, PANC-1; Pancreas; PANC_1; 48 h
Method: as §1, §2

PC3 = test: CellTiter-Blue cell-based survival/proliferation assay, PC3; settings: Homo sapiens, PC-3, Prostate, 48 h
Method: as §1, §2

PLCPRF5 = test: CellTiter-Blue cell-based survival/proliferation assay, PLCPRF5; settings: Homo sapiens, PLC-PRF-5; Liver; PLC_PRF5; 48 h
Method: as §1, §2

SW579 = test: CellTiter-Blue cell-based survival/proliferation assay, SW579; settings: Homo sapiens, Head & Neck, 48 h
Method: as §1, §2

TOV112D = test: CellTiter-Blue cell-based survival/proliferation assay, TOV112D; settings: Homo sapiens, Ovary, 48 h
Method: as §1, §2

**Q.** With `CCOCc1ccc(C)c(Nc2nc(-c3ccc(N4CCNC4=O)cc3)cs2)c1` [Example 003, 1-{4-[2-(5-Ethoxymethyl-(2-methyl-phenylamino))-thiazol-4-yl]-phenyl}-imidazolidin-2-one] as the compound, how does the “interaction with the 456 kinases tested” value [1] read?
**A.** The value was “do not efficiently interact”.

**Q.** And the “S-score, type S1” value [1]?
**A.** The value was 0.002.

**Q.** What about the “S-score, type S10” value [1] of the same compound?
**A.** Its value is 0.009.

**Q.** And the “Number of hits/number of kinases, S10” value [1]?
**A.** Its value is 4/456.

**Q.** What about the “Number of hits/number of kinases, S1” value [1] of the same compound?
**A.** Its value is 1/456.

**Q.** And the “Kinase targets, S10” value [1]?
**A.** Its value is “KIT, KIT V559D,; also recorded: KIT L576P”.

**Q.** What about the “Kinase targets, S1” value [1] of the same compound?
**A.** The value was “PDGFRB”.

**Q.** Which “interaction with the 456 kinases tested” value [1] does the source give for `CCOCc1ccc(C)c(Nc2ncc(-c3ccc(N4CCNC4=O)cc3)o2)c1` [Example 006, 1-{4-[2-(5-Ethoxymethyl-(2-methyl-phenylamino))-oxazol-5-yl]-phenyl}-imidazolidin-2-one] here?
**A.** Its value is “do not efficiently interact”.

**Q.** What about the “S-score, type S1” value [1] of the same compound?
**A.** The value was 0.000.

**Q.** What about the “S-score, type S10” value [1] of the same compound?
**A.** Its value is 0.000.

**Q.** What about the “Number of hits/number of kinases, S10” value [1] of the same compound?
**A.** Its value is 0/456.

**Q.** What about the “Number of hits/number of kinases, S1” value [1] of the same compound?
**A.** The value was 0/456.

**Q.** And the “Kinase targets, S1” value [1]?
**A.** Its value is “None”.

**Q.** How did the “interaction with the 456 kinases tested” value [1] turn out when `CCOCc1ccc(C)c(Nc2ncc(-c3ccc(-n4cccn4)cc3)o2)c1` [Example 033, (5-Ethoxymethyl-2-methyl-phenyl)-[5-(4-pyrazol-1-yl-phenyl)-oxazol-2-yl]-amine] was run?
**A.** The value was “do not efficiently interact”.

**Q.** And the “S-score, type S1” value [1]?
**A.** Its value is 0.000.

**Q.** And the “S-score, type S10” value [1]?
**A.** The value was 0.002.

**Q.** What about the “Number of hits/number of kinases, S10” value [1] of the same compound?
**A.** Its value is 1/456.

**Q.** What about the “Number of hits/number of kinases, S1” value [1] of the same compound?
**A.** The value was 0/456.

**Q.** What about the “Kinase targets, S10” value [1] of the same compound?
**A.** Its value is “CDKL3”.

**Q.** `CCOCc1ccc(C)c(Nc2nc(-c3ccc(-n4cccn4)nc3)cs2)c1` [Example 062, 4-(6-(1H-pyrazol-1-yl)pyridin-3-yl)-N-(5-(ethoxymethyl)-2-methylphenyl)thiazol-2-amine] was tested. Which IC50 (HL60) did it give?
**A.** Its IC50 is 100 to 500 nM.

**Q.** What about the IC50 (OPM2) of the same compound?
**A.** The IC50 was 100 to 500 nM.

**Q.** What about the IC50 (A498) of the same compound?
**A.** Its IC50 is over 1000 nM.

**Q.** And the IC50 (A549)?
**A.** The IC50 was over 1000 nM.

**Q.** And the IC50 (ACHN)?
**A.** Its IC50 is over 1000 nM.

**Q.** And the IC50 (AGS)?
**A.** The IC50 was over 1000 nM.

**Q.** What about the IC50 (BT20) of the same compound?
**A.** Its IC50 is over 1000 nM.

**Q.** What about the IC50 (BXPC3) of the same compound?
**A.** The IC50 was over 1000 nM.

**Q.** And the IC50 (CALU6)?
**A.** The IC50 was over 1000 nM.

**Q.** And the IC50 (CLS354)?
**A.** The IC50 was 500 to 1000 nM.

**Q.** And the IC50 (DLD1)?
**A.** Its IC50 is over 1000 nM.

**Q.** What about the IC50 (DU145) of the same compound?
**A.** Its IC50 is over 1000 nM.

**Q.** And the IC50 (H1299)?
**A.** The IC50 was over 1000 nM.

**Q.** And the IC50 (HCT116)?
**A.** The IC50 was over 1000 nM.

**Q.** What about the IC50 (HEP2) of the same compound?
**A.** The IC50 was 500 to 1000 nM.

**Q.** What about the IC50 (HEPG2) of the same compound?
**A.** Its IC50 is over 1000 nM.

**Q.** And the IC50 (HGC27)?
**A.** Its IC50 is over 1000 nM.

**Q.** And the IC50 (MDAMB231)?
**A.** Its IC50 is over 1000 nM.

**Q.** And the IC50 (MESSA)?
**A.** Its IC50 is over 1000 nM.

**Q.** What about the IC50 (PANC1) of the same compound?
**A.** Its IC50 is over 1000 nM.

**Q.** What about the IC50 (PC3) of the same compound?
**A.** Its IC50 is over 1000 nM.

**Q.** And the IC50 (PLCPRF5)?
**A.** Its IC50 is over 1000 nM.

**Q.** What about the IC50 (SW579) of the same compound?
**A.** The IC50 was over 1000 nM.

**Q.** What about the IC50 (TOV112D) of the same compound?
**A.** Its IC50 is at most 100 nM.
